This note sets out measurements from patent US11178874B2, “Articles comprising antioxidizing agents and bacteriostatic agents, and production processes thereof” (BENVIC SAS, priority 2016, dated 2021).

SMILES strings stand for the structures.

The experiment relates to microorganisms usually present in the environment. The experiment is described as follows: Counting of microorganisms on a growth plate after incubation (bacteriostatic effect of solutions). The experiment is classed as cell-based. Particulars: for cfu/plate: control 597 cfu; for Reduction % observed: vs control 597 cfu. On the procedure: The counting of microorganisms was carried out on a growth plate, after the incubation period (as regards the type of microorganisms, they are microorganisms usually present in the environment). […] Then, the bacteriostatic effect was evaluated of:
a solution of selenium phloroglucinol (20 ppm of selenium, i.e. corresponding to 0.002% by weight);
three solutions of zinc PCA, with a concentration of zinc of 10 ppm, 20 ppm and 30 ppm respectively (i.e. respectively corresponding to 0.001%, 0.002% and 0.003% by weight).
In order to evaluate the synergic effect between zinc and antioxidizing agent, the tests indicated above were repeated, using three solutions separately, respectively containing: selenium 20 ppm+zinc 10 ppm; selenium 20 ppm+zinc 20 ppm; selenium 20 ppm+zinc 30 ppm.

Turning to `O=C1CC[C@@H](C(=O)[O-])N1.O=C1CC[C@@H](C(=O)[O-])N1.[Zn+2]` [Zinc], the cfu/plate (solution 10 ppm) is recorded as 571 cfu/plate, the cfu/plate (solution 20 ppm) was 550 cfu/plate and the cfu/plate (solution 30 ppm) turned out to be 491 cfu/plate. Besides, the Reduction % observed (solution 10 ppm) was found to be 5.1%, the Reduction % observed (solution 20 ppm) came out at 6.0% and the Reduction % observed (solution 30 ppm) is given as 17.1%.
